From patent publication US5378730A, “Permeation enhancer comprising ethanol and monoglycerides” (priority 1992, dated 1995)

Assay type: in vitro ADME, human
Description: The optimum range of water in a permeation-enhancing mixture when used with the drug sodium piroxicam, where the ratio of Myverol 99K monoglyceride to ethanol is 40 to 55.4 in the mixture, was determined as follows. Various ethanol/Myverol 18-99K/water donor compositions, in the weight ratios listed in Table C, were tested with sodium piroxicam to measure their effect upon the drug flux across human cadaver epidermis at 35° C. The ratio of ethanol to monoglyceride was initially 55.4 to 40, to which varying amounts of water were added. All donor compositions were saturated with the drug. Test data were obtained using a 1.13 cm^2 wet-wet horizontal flux cell with 0.2 ml donor solution and 20 ml receptor solutions (pH 7.4 phosphate buffer, 0.05 M).

- optimum range of water content in the permeation-enhancing mixture: 23-33 wt %
SMILES: CN1C(C(=O)Nc2ccccn2)=C(O)c2ccccc2S1(=O)=O [sodium piroxicam]
